pIC50: −log10 of the molar value.

In this assay the target is T1, Human CARM1 (PRMT4) (Homo sapiens, UniProt Q86X55).
T1 construct: Flag-CARM1-His was eluted with 200 ug/ml FLAG peptide in buffer A; made in house; host or cells: HEK 293F cells (BacMam baculovirus, pFastBacMam)
T1 sequence (Q86X55 1-585 isoform Q86X55-1): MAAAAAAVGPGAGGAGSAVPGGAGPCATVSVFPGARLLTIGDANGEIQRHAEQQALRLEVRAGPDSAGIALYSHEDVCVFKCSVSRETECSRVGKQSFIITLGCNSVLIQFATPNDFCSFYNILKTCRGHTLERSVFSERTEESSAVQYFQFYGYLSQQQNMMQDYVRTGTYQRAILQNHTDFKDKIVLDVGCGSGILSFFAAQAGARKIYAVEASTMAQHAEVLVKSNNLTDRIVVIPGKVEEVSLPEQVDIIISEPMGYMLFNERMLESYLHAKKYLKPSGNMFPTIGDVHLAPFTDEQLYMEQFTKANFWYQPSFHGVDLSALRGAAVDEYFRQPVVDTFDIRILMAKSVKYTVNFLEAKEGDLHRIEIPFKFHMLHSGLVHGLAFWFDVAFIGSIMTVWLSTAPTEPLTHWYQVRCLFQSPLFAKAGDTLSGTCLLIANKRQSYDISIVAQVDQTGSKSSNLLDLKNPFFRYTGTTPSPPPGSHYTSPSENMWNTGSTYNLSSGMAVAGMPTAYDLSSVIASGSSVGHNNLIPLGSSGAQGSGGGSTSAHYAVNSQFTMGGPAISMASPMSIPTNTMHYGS
The assay is described as follows: CARM1 Biochemical Assay (3H-SAM Flashplate, peptide substrate). The conditions noted are these: 30 min preincubation. From the text:
Peptide representative of human histone H3 residues 16-30 was synthesized with an N-terminal linker-affinity tag motif and a C-terminal amide cap by 21st Century Biochemicals. The peptide was purified by high-performance liquid chromatography (HPLC) to greater than 95% purity and confirmed by liquid chromatography mass spectrometry (LC-MS). The sequence was Biot-Ahx-[…]-amide and contained a monomethylated arginine at position 26 (SEQ ID NO:14).
Human CARM1 (PRMT4) (NM_199141.1) transcript clone was amplified from an HEK 293 cDNA library, incorporating a flanking 5′ sequence encoding a FLAG tag ([…]) (SEQ ID NO:6) fused directly to Ala 2 of CARM1 and 3′ sequence encoding a hexa His sequence ([…]) (SEQ ID NO:15) fused directly to Ser 608. The gene sequence encoding isoform1 containing a deletion of amino acids 539-561 was amplified subsequently and subcloned into pFastBacMam (Viva Biotech).
Column was washed with 500 mM NaCl in buffer A and Flag-CARM1-His was eluted with 200 ug/ml FLAG peptide in buffer A. Pooled fractions were dialyzed in 20 mM Tris, 150 mM NaCl, 5% glycerol and 1 mM DTT, pH 7.8. The purity of recovered protein was 94.
General Procedure for CARM1 Enzyme Assays on Peptide Substrates.
The assays were all performed in a buffer consisting of 20 mM Bicine (pH=7.6), 1 mM TCEP, 0.005% BSG, and 0.002% Tween 20, prepared on the day of use. Compounds in 100% DMSO (1 ul) were spotted into a polypropylene 384-well V-bottom plates (Greiner) using a Platemate Plus outfitted with a 384-channel head (Thermo Scientific). DMSO (1 ul) was added to Columns 11, 12, 23, 24, rows A-H for the maximum signal control and 1 ul of SAH, a known product and inhibitor of CARM1, was added to columns 11, 12, 23, 24, rows I-P for the minimum signal control. A cocktail (40 ul) containing the CARM1 enzyme was added by Multidrop Combi (Thermo-Fisher). The compounds were allowed to incubate with CARM1 for 30 min at room temperature, then a cocktail (10 ul) containing ^3H-SAM and peptide was added to initiate the reaction (final volume=51 ul). The final concentrations of the components were as follows: CARM1 was 0.25 nM, ^3H-SAM was 30 nM, peptide was 250 nM, SAH in the minimum signal control wells was 1 mM, and the DMSO concentration was 2%. The assays were stopped by the addition of non-radiolabeled SAM (10 ul) to a final concentration of 300 uM, which dilutes the ^3H-SAM to a level where its incorporation into the peptide substrate is no longer detectable. 50 ul of the reaction in the 384-well polypropylene plate was then transferred to a 384-well Flashplate and the biotinylated peptides were allowed to bind to the streptavidin surface for at least 1 hour before being washed once with 0.1% Tween20 in a Biotek ELx405 plate washer. The plates were then read in a PerkinElmer TopCount plate reader to measure the quantity of ^3H-labeled peptide bound to the Flashplate surface, measured as disintegrations per minute (dpm) or alternatively, referred to as counts per minute (cpm).
Where dpm=disintegrations per minute, cmpd=signal in assay well, and min and max are the respective minimum and maximum signal controls.
Where top and bottom are the normally allowed to float, but may be fixed at 100 or 0 respectively in a 3-parameter fit. The Hill Coefficient normally allowed to float but may also be fixed at 1 in a 3-parameter fit. Y is the % inhibition and X is the compound concentration.
The compound `CNCCN(C)Cc1c[nH]nc1C#Cc1cccc(OC)c1` [Compound 1] gave a pIC50 of 6.00 to 7.00. The same measure for `CNCCN(C)Cc1c[nH]nc1C#Cc1ccc(C(C)(C)C)cc1` [Compound 2]: 6.00 to 7.00. The same measure for `CNCCN(C)Cc1c[nH]nc1C#Cc1ccccc1` [Compound 3]: 5.52 to 6.00; for `CNCCN(C)Cc1c[nH]nc1C#Cc1ccc(F)cc1` [Compound 4]: 6.00 to 7.00. Take `CNCCN(C)Cc1c[nH]nc1/C=C/c1ccc(-c2ccccc2)cc1` [Compound 5]: the pIC50 was 6.00 to 7.00.

On to `CNCCN(C)Cc1c[nH]nc1/C=C/c1ccc(C(F)(F)F)cc1` [Compound 6], for which the pIC50 was 6.00 to 7.00. As for `CNCCN(C)Cc1c[nH]nc1/C=C/c1ccc(OC)cc1` [Compound 7], the pIC50 is more than 7.00. The same measure for `Cc1ccc(/C=C/c2n[nH]cc2CN(C)CCN)cc1` [Compound 8]: 6.00 to 7.00; for `COc1cc(/C=C/c2n[nH]cc2CN(C)CCN)cc(OC)c1` [Compound 11]: more than 7.00; for `CN(CCN)Cc1c[nH]nc1/C=C/c1ccc(F)cc1F` [Compound 13]: 6.00 to 7.00. The same measure for `CN(CCN)Cc1c[nH]nc1/C=C/c1cc(C(F)(F)F)cc(C(F)(F)F)c1` [Compound 14]: 6.00 to 7.00. The same measure for `CN(CCN)Cc1c[nH]nc1/C=C/c1cc(F)cc(F)c1` [Compound 15]: 6.00 to 7.00. Regarding `CN(CCN)Cc1c[nH]nc1/C=C/c1cccc(C(F)(F)F)c1` [Compound 16], the negative-log IC50 (pIC50) was 6.00 to 7.00. The same measure for `COc1cccc(/C=C/c2n[nH]cc2CN(C)CCN)c1` [Compound 17]: more than 7.00; for `CN(CCN)Cc1c[nH]nc1/C=C/c1ccc(C(F)(F)F)cc1` [Compound 18]: more than 7.00. The same measure for `COC/C=C/c1n[nH]cc1CN(C)CCN` [Compound 19]: 5.00 to 5.52.

`CN(CCN)Cc1c[nH]nc1/C=C/c1cccc(F)c1` [Compound 20] had a pIC50 of 6.00 to 7.00. The same measure for `CN(CCN)Cc1c[nH]nc1C1CCCCC1` [Compound 22]: 5.00 to 5.52. As for `CN(CCN)Cc1c[nH]nc1CCc1ccc(F)cc1` [Compound 23, N^1-((3-(4-fluorophenethyl)-1H-pyrazol-4-yl)methyl)-N^1-methylethane-1,2-diamine], the negative logarithm of the IC50 (pIC50) was 5.52 to 6.00.

The record behind these values is US11185531B2, “Arginine methyltransferase inhibitors and uses thereof” (Epizyme, Inc., priority 2013, dated 2021).
